Assay results from publication PMC4208851, “Development of Nanoparticles Incorporating a Novel Liposomal Membrane Destabilization Peptide for Efficient Release of Cargos into Cancer Cells” (PLoS ONE, 2014).
pIC50: −log10 of the molar value. Where no end group is shown, it is not given here.

Target: T1, γ-secretase (Homo sapiens, UniProt P49768)
T1 construct: The solubilized membrane preparations of A549 (16.5 µg total protein) were incubated with 100 µM LMDP or LMDP-lipo; endogenous in cells; host or cells: A549 cells, CHAPSO-solubilized membrane fraction
Experiment: Cleavage of fluorescence-quenching substrate peptide probe by γ-secretase in solubilized A549 membrane fraction (competitive inhibition / inhibitor test)
Assay type: biochemical
Procedure: The membrane fraction was prepared according to previous reports. All procedures were carried out on ice. Cultured HeLa cells, A549 cells, MCF-7 cells and HUEhT-2 cells (about 1×10^8 cells) were pelleted. Cells were resuspended in a buffer containing 20 mM Hepes, pH 7.5, 50 mM KCl, 2 mM EGTA, and protease inhibitor cocktail, Complete Mini (Roche Applied Science), and homogenized using 15 strokes of a Dounce homogenizer with a tight pestle. The cellular homogenates were centrifuged at 800 × g for 10 min and rehomogenized as above. […] The total protein concentration was determined with a BCA Protein Assay Kit (Thermo scientific).
To measure γ-secretase activity, solubilized membrane preparations ([…] total protein) were incubated with eight µM fluorescence-quenching peptide substrate at 37°C overnight and centrifuged at 16,100 × g for 15 min. The fluorescence of supernatants was measured by Plate Infinite M200 (TECAN) with an excitation wavelength of 355 nm and emission wavelength of 440 nm.
To study LMDP cleavage by γ-secretase, the competitive inhibitory effect of LMDP or LMDP-lipo on the cleavage of the peptide substrate (the same as that used in 2.2) was evaluated. […] Then, the fluorescence intensity was measured as described in 2.2. […]

pIC50 (A549 solubilized membrane 16.5 µg protein, 5 µM peptide substrate, 0-100 µM LMDP, 37°C overnight, fluorescence ex 355/em 440 nm, n = 3, read-out: IC50, competitive inhibition of cleavage of fluorescent substrate peptide probe) | Compound | Inhibition of γ-secretase activity (A549 membrane fraction preincubated with DAPT 37°C 30 min, then substrate peptide probe 37°C overnight (Fig. S3))
– | C[C@H](NC(=O)Cc1cc(F)cc(F)c1)C(=O)N[C@H](C(=O)OC(C)(C)C)c1ccccc1 [DAPT, N-[N-(3,5-Difluorophenacetyl)-L-alanyl]-S-phenylglycine t-butyl ester] | about 60%
4.54 | LHLMYVAAAAFVLLFFVGCGVLLSRKRRR [LMDP] | –
